# Source: US8003360B2, “Debaryomyces castellii phytase” (Adisseo France S.A.S., priority 2005, dated 2011)
# B1: recombinant Debaryomyces castellii CBS 2923 phytase (recPhyt, expressed in Pichia pastoris), SEQ ID No. 2 (Schwanniomyces capriottii) (protein)
# chain: MVSVSKLINNGLLLVGQGAYQDLASPQQASVEQYNIIRFLGGAAPYIQNKGFGISTDIPDQCTLEQVQLFSRHGERYPSTGSGKKYKAVYEKLMSYNGTFKGELAFLNDDYEYFVPDSVYLEKETSPKNSDSIYAGTTDAMKHGIAFRTKYGELFDTNDTLPVFTSNSGRVYQTSQYFARGFMGDDFSNDTVKTNIISEDADMGANSLTPRDGCFNYNENANTAIVDEYTTEYLTKALNRFKASNPGLNITEDDVSNLFGYCAYELNVKGASPMCDIFTNEEFIQYSYSVDLDDYYSNSAGNNMTRVIGSTLLNASLELLNHDKNENKIWLSFTHDTDIEIFHSAIGILIPDEDLPVDYTPFPSPYSHVGITPQGARTIIEKYACGNESYVRYVINDAVIPIKKCSSGPGFSCNLNDYNDYVAERVAGTNYVEQCGNNNASAVTFYWDYETTNYTASLINS
# B2: Debaryomyces castellii CBS 2923 phytase, native (wild type), SEQ ID No. 2 (Schwanniomyces capriottii) (protein)
# chain: VSVSKLINNGLLLVGQGAYQDLASPQQASVEQYNIIRFLGGAAPYIQNKGFGISTDIPDQCTLEQVQLFSRHGERYPSTGSGKKYKAVYEKLMSYNGTFKGELAFLNDDYEYFVPDSVYLEKETSPKNSDSIYAGTTDAMKHGIAFRTKYGELFDTNDTLPVFTSNSGRVYQTSQYFARGFMGDDFSNDTVKTNIISEDADMGANSLTPRDGCFNYNENANTAIVDEYTTEYLTKALNRFKASNPGLNITEDDVSNLFGYCAYELNVKGASPMCDIFTNEEFIQYSYSVDLDDYYSNSAGNNMTRVIGSTLLNASLELLNHDKNENKIWLSFTHDTDIEIFHSAIGILIPDEDLPVDYTPFPSPYSHVGITPQGARTIIEKYACGNESYVRYVINDAVIPIKKCSSGPGFSCNLNDYNDYVAERVAGTNYVEQCGNNNASAVTFYWDYETTNYTASLINS
# Assays:
# [1] = test system: D. castellii phytase; experiment: Substrate specificity, phosphate release kinetics (Table 6A); type: biochemical, Debaryomyces castellii; details: substrate 4 mM; 250 mM sodium acetate buffer, 1 mM CaCl2, pH 4, 37° C.
# Description: The reaction is triggered by the addition of the enzymatic extract (1 volume). The reaction is stopped by acidification of the medium with 20% trichloroacetic acid (1 volume of reaction medium+1 volume of acid). The amount of phosphate released is determined after various incubation times.
# [2] = test system: Debaryomyces castellii CBS2923 phytase; experiment: Influence of the environment (additives, calcium, buffer molarity) on thermostability of the phytase; type: physicochemical
# Description: At the end of treatment, the extract is cooled in water at +4° C. […] Three types of elements are tested: • sugars or sugar alcohol: sucrose, lactose, trehalose, arabinose, glycerol, • the absence of calcium, • the molarity of the buffer. […] At the end of treatment, the extract is cooled in water to +4° C. […] Materials and Methods).
# [3] = target: T1, Debaryomyces castellii CBS 2923 phytase, native (wild type), SEQ ID No. 2 (Schwanniomyces capriottii, UniProt A2TBB4); experiment: Kinetic constants (specificity study) of the native phytase; type: biochemical; details: native enzyme
# Description: (§1) The effect of pH on the phytase activity is determined using the following buffer solutions: 200 mM glycine-HCl, pH 2-3.5; 200 mM sodium acetate-acetic acid, pH 3.5-7; and 200 mM tris-HCl, pH 7-9. The reactions are carried out at +37° C. using the phytate as substrate. The optimum temperature is determined by varying the temperature from +30° C. to +80° C. […] After the heat treatment, the mixture is cooled in ice and the phytase activity is determined using the phytate as substrate.
# (§2) The amount of phosphate released is measured by colorimetery. The visualizing solution, prepared extemporaneously, contains iron sulphate (380 mM, 1 volume) and ammonium heptamolybdate (12 mM, 4 volumes). The absorbance at 700 nm is measured after 30 minutes of visualization at ambient temperature (1 volume of reaction medium+1 volume of visualizing solution), using a UV/visible spectrophotometer (Beckman DU 530).
# (§3) The kinetic constants are determined on 2 substrates.
# [4] = test system: recombinant phytase; experiment: Kinetic constants of the recombinant phytase on substrates; type: biochemical, Debaryomyces castellii; details: Lineweaver-Burk representation
# [5] = test system: D. castellii phytase; experiment: Kinetic constants of the native phytase on substrates; type: biochemical, Debaryomyces castellii; details: +37° C., pH 4 with sodium phytate, pH 5.5 with p-NPP
# Description: as §1, §3
# [6] = target: recombinant Debaryomyces castellii CBS 2923 phytase (recPhyt, expressed in Pichia pastoris), SEQ ID No. 2 (Schwanniomyces capriottii, UniProt A2TBB4); details: recombinant enzyme, Lineweaver-Burk; 37° C.; pH 4 for sodium phytate, pH 5.5 for p-NPP
# [7] = test system: D. castellii phytase; experiment: Influence of effectors on phytase activity; type: biochemical, Debaryomyces castellii
# [8] = test system: Schwanniomyces occidentalis phytase; details: Segueilha et al., 1992; cited from earlier work
# [9] = test system: D. castellii phytase; experiment: Hydrolysis of various inositol phosphates (Table 6B); type: biochemical, Debaryomyces castellii; details: substrate 0.1 mM; hydrolysis 30 minutes at 37° C., pH 4
# [10] = target: T1, Debaryomyces castellii CBS 2923 phytase, native (wild type), SEQ ID No. 2; experiment: Influence of effectors on the phytase activity; type: biochemical; details: Table 3
# Description: as §2
# [11] = substrate: O=P(O)(O)O[C@H]1[C@H](OP(=O)(O)O)[C@@H](OP(=O)(O)O)[C@H](OP(=O)(O)O)[C@@H](OP(=O)(O)O)[C@H]1OP(=O)(O)O; experiment: purified protein, by the assay type
# [12] = additive 10% in 250 mM acetate buffer pH 4, 1 mM calcium
# [13] = effector 5 mM, phytate control = 100
# [14] = CaCl2 0 mM (absence of calcium), 250 mM acetate buffer pH 4
# [15] = other: native enzyme, 37° C., pH 4 for sodium phytate, pH 5.5 for p-NPP
molecule,measurement,setting,value
Nc1ncnc2c1ncn2[C@@H]1O[C@H](COP(=O)(O)OP(=O)(O)OP(=O)(O)O)[C@@H](O)[C@H]1O [Adenosine 5′-triphosphate],% activity,[1],133%
"OC[C@H]1O[C@@H](O[C@H]2[C@H](O)[C@@H](O)C(O)O[C@@H]2CO)[C@H](O)[C@@H](O)[C@H]1O (some centres unmarked) [Lactose, lactose]",activity after 1 h at 20° C.,[2]; [12],95
same,activity after 1 h at 66.5° C.,[2]; [12],47
Nc1ncnc2c1ncn2[C@@H]1O[C@H](COP(=O)(O)O)[C@@H](O)[C@H]1O [Adenosine 5′-monophosphate],% activity,[1],50%
O=P(O)(O)O[C@H]1[C@H](OP(=O)(O)O)[C@@H](OP(=O)(O)O)[C@H](OP(=O)(O)O)[C@@H](OP(=O)(O)O)[C@H]1OP(=O)(O)O [calcium phytate],affinity of the phytase relative to p-nitrophenyl phosphate (pNPP),[3]; calcium phytate versus pNPP,4 times
O=P(O)(O)OCC(O)CO (stereo in doubt) [L-α-glycerophosphate],% activity,[1],78%
"O=[N+]([O-])c1ccc(OP(=O)(O)O)cc1 [pNPP, p-nitrophenyl phosphate]",Km,[4],2050 µM
same,Vm,[4],274.6 U/mg
same,Km,[5],2270 µM
same,Vm,[5],30.9 µmol/min/mg
same,Km,"[3]; 37° C., pH 4 for sodium phytate, pH 5.5 for p-NPP",2270 µM
same,% activity,[1],135%
same,Km,[6],2050 µM
[Cl-].[Cl-].[Co+2] [CoCl2],% activity,[7],42.3%
[Cl][Cu][Cl] [CuCl2],effect on phytase activity,[8],sensitive
same,% activity,[7]; [13],66.6%
"OCC(O)CO [Glycerol, glycerol]",activity after 1 h at 20° C.,[2]; [12],96
same,activity after 1 h at 66.5° C.,[2]; [12],56
[Ca+2].[Cl-].[Cl-] [CaCl2],% activity,[7]; [13],90%
same,activity after 1 h at 20° C.,[2]; [14],100
same,activity after 1 h at 66.5° C.,[2]; [14],1
[Cl][Mn][Cl] [MnCl2],inhibition of phytase activity,[7]; concentrations see Table 3,72%
same,% activity,[7]; [13],28.8%
O=C[C@H](O)[C@@H](O)[C@H](O)[C@H](O)COP(=O)(O)O [Glucose-6-phosphate],% activity,[1],82%
C=C(OP(=O)(O)O)C(=O)O [Phospho(enol)pyruvate],% activity,[1],130%
O=C(CO)[C@@H](O)[C@H](O)[C@H](O)COP(=O)(O)O [Fructose-6-phosphate],% activity,[1],35%
"O=P(O)(O)O[C@H]1[C@H](O)[C@@H](O)[C@H](OP(=O)(O)O)[C@@H](O)[C@H]1O [Ins(1,4)P2]",% activity,[9],65%
O=C(O)CN(CCN(CC(=O)O)CC(=O)O)CC(=O)O [EDTA],% activity,[7],104.5%
O=C1CCC(=O)N1Br [N-bromosuccinimide],effect on the phytase activity (in words),[10],completely inhibits the phytase activity
same,% activity,"[7]; effector 0.1 and 1 mM, phytate control = 100",1%
same,effect on phytase activity,"[7]; inhibitors tested, see Table 3",completely inhibits
B1,Km,[11]; 37.0 °C,240 µM
same,Vmax,[11]; 37.0 °C,137.8 U/mg
B2,Km,[11]; [15],532 µM
same,Vmax,[11]; [15],35.8 µmol/min/mg
